Experimental data reported in US6503943B1, “Platinum complex, its preparation and therapeutic application” (priority 1998, dated 2003).
Values joined by “and” are separate entries in the source; they are usually repeats but may differ in a detail not shown here. Equal values may be shown once.

Legend:
[1] = tested on: mammal adenocarcinoma MC2111; experiment: Antitumor effect at animals with solid form of mammal adenocarcinoma MC2111 (Example 9); assay type: in vivo, mice DBA1; details: for Tumor mass (%) of control / Tumor mass, Arithm. mean: 5th-13 day, tumor size 14th day, mass from regression
[2] = tested on: ascitic form of Ehrlich tumor (ATE); experiment: Antitumor effect at animals with ascitic form of Ehrlich tumor (ATE) (Example 11);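 for all read-outs here: half of each dose group killed on day 10, tumor mass taken as animal mass lost on ascites aspiration, ascitocrit by microhematocrit centrifuge, rest followed daily for survival versus reference group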; details: for Survival (in % of control) / Survival time, Geom. mean / Total ascitocrit (%) of control / Total ascitocrit (mass of cell fraction of a tumor), Arithm. mean / Tumor mass (%) of control / Tumor mass, Arithm. mean: 1th-9th day; for Total ascitocrit (%) of control / Total ascitocrit (mass of cell fraction of a tumor), Arithm. mean / Tumor mass (%) of control / Tumor mass, Arithm. mean: dissection 10th day
Procedure: After termination of application, one half of animals in each dosage group was destroyed at 10th day after inoculation in ether narcosis, the ascits were sucked out after laparotomy and the mass of a tumor at each of the animals was determined from the difference of mass before and after sucking out the ascit. Ascitocrit in ascitic liquor of single animals was determined on microhematocrit centrifuge in heparinized capillary tubes of 75 mm length. The value of “total ascitocrit”corresponding to a mass of cells in ascitic liquor has been determined from percentage of ascitocrit and mass of the tumor. Remaining animals were left for monitoring the survival time. In these animals, the survival time was monitored on daily basis. The dependence of the survival time value on the applied dose was evaluated in comparison with the reference group.
The single estimated time points as biological responses were evaluated by a test of equivalence of two mean values (Student's t-test). Geometric mean was calculated from single values of survival time, arithmetic means were calculated from single values of tumor mass and total ascitocrit. Difference between mean values was evaluated by a test of equivalence of two mean values (Student's t-test) under presumption of normal probability distribution of mass values as well as of total ascitocrit values and of logarithmic/normal distribution of temporal values, all under presumption of possible unknown disseminations. Those diferences in mean values, whose values of a test criterium exceeded the critical value at the 5% and 1% significance level were evaluated as statistically significant and highly statistically significant, respectively.
The optimum dosage has been calculated from values of survival time according to the proportional risk model of Cox (Carter et al., 1982). Parameters of Weinbull distribution and logarithmic transformation of introductory data were used for estimation of a basic and modified survival function from experimental data.

[3] = tested on: ascitic form of Ehrlich tumor (ATE); experiment: Antitumor effect at animals with ascitic form of Ehrlich tumor (ATE) (Example 10); assay type: in vivo, mice ICR; details: for Survival (in % of control) / Survival time, Geom. mean / Tumor mass (%) of control / Tumor mass, Arithm. mean: 1st-9th day; for Tumor mass (%) of control / Tumor mass, Arithm. mean: dissection 10th day
leucaemia L1210 [4] = experiment: Antitumor effect at animals with leucaemia L1210, single administration (Example 4); assay type: in vivo, mice DBA2
leucaemia L1210 [5] = experiment: Antitumor effect at animals with leucaemia L1210, continual versus intermitent regimen (Example 6); assay type: in vivo, mice DBA2
Gardner lymphosarcoma = experiment: Antitumor effect at animals with solid form of Gardner lymphosarcoma (Example 8); assay type: in vivo, mice C3H; details: for Tumor mass (%) of control / Tumor mass, Arithm. mean: 5th day, tumors weighed 14th day
leucaemia L1210 [6] = experiment: Antitumor effect at animals with leucaemia L1210, continual regimen (Example 7); assay type: in vivo, mice DBA2; details: for Survival (in % of control) / Survival time, Geom. mean: 1th-9th day
leucaemia L1210 [7] = experiment: Antitumor effect at animals with leucaemia L1210, intermitent administration 3x (Example 5); assay type: in vivo, mice DBA2; details: for Survival (in % of control) / Survival time, Geom. mean: 1st, 5th and 9th day
[8] = 9 mg/kg/day as printed, middle dose group between 36 and 9, p.o. 3x, 1,5,9th day
[9] = 9 mg/kg/day p.o. 3x, 1,5,9th day (lowest dose group)
[10] = 12 mg/kg/day p.o. 9x, 1-9th day
[11] = 36 mg/kg/day p.o. 3x, 1,5,9th day

SMILES: CC(=O)[O][Pt]([NH2])([Cl])([Cl])([NH]C1CCCCC1)[O]C(C)=O [LA-2, af-bis(acetato)-b-ammin-cd-dichloro-e-(cyclohexylamine)platinum (IV) complex]
- Tumor mass (%) of control ([1]; 3 mg/kg/day p.o. 9x): 86%
- Tumor mass, Arithm. mean ([1]; 3 mg/kg/day p.o. 9x): 4.00 g
- Tumor mass (%) of control ([1]; 6 mg/kg/day p.o. 9x): 83%
- Tumor mass, Arithm. mean ([1]; 6 mg/kg/day p.o. 9x): 3.86 g
- Tumor mass (%) of control ([1]; 12 mg/kg/day p.o. 9x): 77%
- Tumor mass, Arithm. mean ([1]; 12 mg/kg/day p.o. 9x): 3.59 g
- Survival (in % of control) ([1]; mouse, in vivo): 100% and 115% and 113%
- Survival time, Geom. mean ([1]; mouse, in vivo): 21.7 days and 24.9 days and 24.5 days
- Evaluation of antitumor effect, in words ([1]; p.o.×9 12, 6, 3 mg/kg/day, Platidiam 8 and 4 mg/kg s.c. once): No effect was observed
- Survival (in % of control) ([2]; 3 mg/kg/day p.o. 9x): 114%
- Survival time, Geom. mean ([2]; 3 mg/kg/day p.o. 9x): 10.1 days
- Total ascitocrit (%) of control ([2]; 3 mg/kg/day p.o. 9x): 108%
- Total ascitocrit (mass of cell fraction of a tumor), Arithm. mean ([2]; 3 mg/kg/day p.o. 9x): 0.74 g
- Tumor mass (%) of control ([2]; 3 mg/kg/day p.o. 9x): 90%
- Tumor mass, Arithm. mean ([2]; 3 mg/kg/day p.o. 9x): 3.53 g
- Survival time, Geom. mean ([2]; 6 mg/kg/day p.o. 9x): 13.2 days
- Total ascitocrit (%) of control ([2]; 6 mg/kg/day p.o. 9x): 100%
- Total ascitocrit (mass of cell fraction of a tumor), Arithm. mean ([2]; 6 mg/kg/day p.o. 9x): 0.69 g
- Tumor mass (%) of control ([2]; 6 mg/kg/day p.o. 9x): 59%
- Tumor mass, Arithm. mean ([2]; 6 mg/kg/day p.o. 9x): 2.32 g
- Survival (in % of control) ([2]; 12 mg/kg/day p.o. 9x): 111%
- Survival time, Geom. mean ([2]; 12 mg/kg/day p.o. 9x): 9.9 days
- Total ascitocrit (%) of control ([2]; 12 mg/kg/day p.o. 9x): 95%
- Total ascitocrit (mass of cell fraction of a tumor), Arithm. mean ([2]; 12 mg/kg/day p.o. 9x): 0.65 g
- Tumor mass (%) of control ([2]; 12 mg/kg/day p.o. 9x): 70%
- Tumor mass, Arithm. mean ([2]; 12 mg/kg/day p.o. 9x): 2.74 g
- Evaluation of antitumor effect (survival time versus control), in words ([2]; p.o.×9, Platidiam 8 and 4 mg/kg s.c.×1, Tab. 8.1): didnot increase the survival time statistically significant
- Survival (in % of control) ([3]; 3 mg/kg/day p.o. 9x): 161%
- Survival time, Geom. mean ([3]; 3 mg/kg/day p.o. 9x): 18.4 days
- Tumor mass (%) of control ([3]; 3 mg/kg/day p.o. 9x): 119%
- Tumor mass, Arithm. mean ([3]; 3 mg/kg/day p.o. 9x): 3.17 g
- Survival (in % of control) ([3]; 6 mg/kg/day p.o. 9x): 156%
- Survival time, Geom. mean ([3]; 6 mg/kg/day p.o. 9x): 17.9 days
- Tumor mass (%) of control ([3]; 6 mg/kg/day p.o. 9x): 80%
- Tumor mass, Arithm. mean ([3]; 6 mg/kg/day p.o. 9x): 2.13 g
- Survival (in % of control) ([3]; 12 mg/kg/day p.o. 9x): 110%
- Survival time, Geom. mean ([3]; 12 mg/kg/day p.o. 9x): 12.6 days
- Tumor mass (%) of control ([3]; 12 mg/kg/day p.o. 9x): 79%
- Tumor mass, Arithm. mean ([3]; 12 mg/kg/day p.o. 9x): 2.10 g
- Significance of mean survival time increase in comparison with untreated control (p≦0.01), in words ([3]; Tab. 7-2): do not
- Effect at the single oral dose of 10 mg/kg for IP-L 1210, in words (leucaemia L1210 [4]; 10 mg/kg (30 mg/m^2) single oral dose): no effect
- Antitumor effect (survival time versus control), in words (leucaemia L1210 [4]; mouse, in vivo): No effect has been proven
- Survival (in % of control) (leucaemia L1210 [4]; mouse, in vivo): 63% and 85% and 81% and 94% and 99%
- Survival time, Geom. mean (leucaemia L1210 [4]; mouse, in vivo): 8.0 days and 10.7 days and 10.3 days and 11.9 days and 12.5 days
- Survival (in % of control) (leucaemia L1210 [5]; 3 mg/kg/day p.o. 9x, 1-9th day): 162%
- Survival time, Geom. mean (leucaemia L1210 [5]; 3 mg/kg/day p.o. 9x, 1-9th day): 18.7 days
- Survival (in % of control) (leucaemia L1210 [5]; 6 mg/kg/day p.o. 9x, 1-9th day): 173%
- Survival time, Geom. mean (leucaemia L1210 [5]; 6 mg/kg/day p.o. 9x, 1-9th day): 20.0 days
- Survival (in % of control) (leucaemia L1210 [5]; [8]): 160%
- Survival time, Geom. mean (leucaemia L1210 [5]; [8]): 18.6 days
- Survival (in % of control) (leucaemia L1210 [5]; [9]): 99%
- Survival time, Geom. mean (leucaemia L1210 [5]; [9]): 11.4 days
- Survival (in % of control) (leucaemia L1210 [5]; [10]): 99%
- Survival time, Geom. mean (leucaemia L1210 [5]; [10]): 11.5 days
- Survival (in % of control) (leucaemia L1210 [5]; [11]): 130%
- Survival time, Geom. mean (leucaemia L1210 [5]; [11]): 15.1 days
- Evaluation of antitumor effect (survival time versus control), in words (leucaemia L1210 [5]; LA-12 6 mg/kg p.o.×9, Platidiam 8 and 4 mg/kg s.c.×1, LA-2 any of the dosage groups): antitumor uneffective
- Tumor mass (%) of control (Gardner lymphosarcoma; 2 mg/kg p.o. 1x): 90%
- Tumor mass, Arithm. mean (Gardner lymphosarcoma; 2 mg/kg p.o. 1x): 5.61 g
- Tumor mass (%) of control (Gardner lymphosarcoma; 8 mg/kg p.o. 1x): 99%
- Tumor mass, Arithm. mean (Gardner lymphosarcoma; 8 mg/kg p.o. 1x): 6.19 g
- Tumor mass (%) of control (Gardner lymphosarcoma; 32 mg/kg p.o. 1x): 103%
- Tumor mass, Arithm. mean (Gardner lymphosarcoma; 32 mg/kg p.o. 1x): 6.44 g
- Effect on average mass of a tumor, in words (Gardner lymphosarcoma; single p.o. 32, 8 and 2 mg/kg): No effect has been observed
- Survival (in % of control) (leucaemia L1210 [6]; 3 mg/kg/day p.o. 9x): 214%
- Survival time, Geom. mean (leucaemia L1210 [6]; 3 mg/kg/day p.o. 9x): 48.1 days
- Increase of survival time value in comparison with the control group (leucaemia L1210 [6]; 3 mg/kg/day p.o.×9): 114%
- Survival (in % of control) (leucaemia L1210 [6]; 6 mg/kg/day p.o. 9x): 137%
- Survival time, Geom. mean (leucaemia L1210 [6]; 6 mg/kg/day p.o. 9x): 30.8 days
- Survival (in % of control) (leucaemia L1210 [6]; 12 mg/kg/day p.o. 9x): 108%
- Survival time, Geom. mean (leucaemia L1210 [6]; 12 mg/kg/day p.o. 9x): 24.4 days
- Survival (in % of control) (leucaemia L1210 [7]; 2 mg/kg/day p.o. 3x): >129%
- Survival time, Geom. mean (leucaemia L1210 [7]; 2 mg/kg/day p.o. 3x): 20.2 days
- Survival (in % of control) (leucaemia L1210 [7]; 4 mg/kg/day p.o. 3x): 118%
- Survival time, Geom. mean (leucaemia L1210 [7]; 4 mg/kg/day p.o. 3x): 18.5 days
- Survival (in % of control) (leucaemia L1210 [7]; 8 mg/kg/day p.o. 3x): <148%
- Survival time, Geom. mean (leucaemia L1210 [7]; 8 mg/kg/day p.o. 3x): 23.2 days
- Optimum dose as calculated according to Carter (leucaemia L1210 [7]; intermitent oral administration 3x): 10.96 mg/kg/day p.o.×3
